This passage reports minimal effective dose and IC50 results from patent US4387098A, “Imidazo[1,2-a]quinoline derivatives useful as anxiolytics” (Roussel Uclaf, priority 1981, dated 1983).

pIC50: −log10 of the molar value.

Test system in one test: not listed separately
Kind of test: anxiolytic activity, one-day lick shock method of Vogel et al. It counts as in vivo. As to conditions: po, 24 h, orally, read-out: minimum effective dose (MED) at which there was an observed increase in shocks above control. The protocol:
B. Screening for anxiolytic activity was carried out by the one-day lick shock method of Vogel et al [Psychopharmacologia, 1971 Vol. 21, p. 1]. The values of Table VI are the minimum effective doses (MED) in mg/kg orally at which there was an observed increase in shocks above control.
For `COc1cc2nc(C(=O)c3ccccc3)cn2c2ccc(C(C)C)cc12` [Example 15], the minimal effective dose is 10 mg/kg.
The same measure, in the same setting: the figure for `CCc1ccc2c(c1)c(OC)cc1nc(C(C)=O)cn12` [Example 6] is 20 mg/kg; for `COc1cc2nc(C(=O)c3ccccc3)cn2c2ccc(C)cc12` [Example 13] it is 25 mg/kg.
Take `COc1cc2nc(C(=O)c3ccccc3)cn2c2ccccc12` [Example 4, (5-methoxy-imidazo[1,2-a]quinolin-2-yl)-phenyl-methanone]: the minimal effective dose was found to be 25 mg/kg.
Still for that read-out and setting: the figure for `CCCCc1ccc2c(c1)c(OC)cc1nc(C(=O)c3ccccc3)cn12` [Example 16] is 25 mg/kg.
For the compound `CCc1ccc2c(c1)c(OC)cc1nc(C(=O)c3ccccc3)cn12` [Example 1], the minimal effective dose amounted to 20 mg/kg.

The next test deals with benzodiazepine receptor. Kind of test: benzodiazepine receptor affinity, [^3 H] flunitrazepam radio receptor binding (modified Squires and Braestrup) on rat forebrain membrane preparations. As to conditions: 0.6 nM [^3 H] flunitrazepam, read-out: IC50, inhibition of the specific binding of [^3 H] flunitrazepam by 50%. The protocol: A. The affinity of the compounds for the benzodiazepine receptor was assessed using the radioligand [^3 H] flunitrazepam and modifications of the original radio receptor binding method of Squires and Braestrup (Nature, 1977, Vol. 266, p. 732). The values of Table V are nanomolar concentrations of test compound which inhibited the specific binding of 0.6 nM[^3 H] flunitrazepam to rat forebrain membrane preparations by 50% (IC50 nM).
`COc1cc2nc(C(=O)c3ccccc3)cn2c2cc(C)ccc12` [Example 24]: the pIC50 is 6.54.
Still for that read-out and setting: the figure for `CCc1ccc(C(=O)c2cn3c(cc(OC)c4cc(CC)ccc43)n2)cc1` [Example 29] is 7.29.
On the same count and under the same terms, to `CSc1cc2nc(C(=O)c3ccccc3)cn2c2ccccc12` [Example 2, (5-methylthio-imidazo[1,2-a]quinolin-2-yl)-phenyl-methanone] belongs 6.30.
Consider `COc1cc2nc(C(=O)c3ccc(C)cc3)cn2c2ccccc12` [Example 17], for which the pIC50 is 7.72.
Regarding `CCOc1cc2nc(C(=O)c3ccccc3)cn2c2ccccc12` [Example 9], the pIC50 was 6.27.
Still for that read-out and setting: the figure for `COc1cc2nc(C(=O)c3ccccc3)cn2c2ccc(C3CCCCC3)cc12` [Example 26] is 5.00; for `COc1cc2nc(C(=O)c3ccccc3)cn2c2cc(Cl)ccc12` [Example 22] it is 6.47.
The same measure, in the same setting: the figure for `COc1cc2nc(C(=O)c3cccs3)cn2c2ccccc12` [Example 21] is 7.62; for `COc1ccc(C(=O)c2cn3c(cc(OC)c4ccccc43)n2)cc1` [Example 18] it is 7.43.
On to `COc1ccc2c(OC)cc3nc(C(=O)c4ccccc4)cn3c2c1` [Example 3], for which the pIC50 was 5.30.
On to `CCCOc1cc2nc(C(=O)c3ccccc3)cn2c2ccccc12` [Example 12], for which the pIC50 is 6.00.
Same read-out and setting: to `CCc1ccc2c(c1)c(OC)cc1nc(C(=O)c3ccccn3)cn12` [Example 30] belongs 7.04; to `COc1cc2nc(C(=O)c3ccccc3)cn2c2ccc(C(C)C)cc12` [Example 15], 7.60; to `CC(C)Oc1cc2nc(C(=O)c3ccccc3)cn2c2ccccc12` [Example 8, (5-isopropoxy-imidazo[1,2-a]quinolin-2-yl)-phenyl-methanone], 6.33.
On the same count and under the same terms, to `COc1cc2nc(C(=O)c3ccccc3)cn2c2ccc(Cl)cc12` [Example 7] belongs 6.22; to `COc1cc2nc(C(=O)c3ccccc3)cn2c2cccc(C)c12` [Example 25], 7.96; to `CCc1ccc(C(=O)c2cn3c(cc(OC)c4ccccc43)n2)cc1` [Example 11, (4-ethyl-phenyl)(5-methoxy-imidazo[1,2-a]quinolin-2-yl)-methanone], 7.17.
Regarding `COc1cc2nc(C(=O)c3ccc(Cl)cc3)cn2c2ccccc12` [Example 20], the pIC50 was 7.02.
Still for that read-out and setting: the figure for `COc1cc2nc(C(=O)c3ccccc3)cn2c2ccc(Oc3ccccc3)cc12` [Example 27] is 6.68; for `CCc1ccc2c(c1)c(OC)cc1nc(C(C)=O)cn12` [Example 6] it is 5.89; for `COc1cc2nc(C(=O)c3ccccc3)cn2c2ccc(C)cc12` [Example 13] it is 7.68.
Still for that read-out and setting: the figure for `COc1cc2nc(C(=O)c3ccccc3)cn2c2ccccc12` [Example 4, (5-methoxy-imidazo[1,2-a]quinolin-2-yl)-phenyl-methanone] is 7.57; for `COc1cc2nc(C(=O)c3ccccc3)cn2c2ccc(F)cc12` [Example 31] it is 7.13; for `CCCCc1ccc2c(c1)c(OC)cc1nc(C(=O)c3ccccc3)cn12` [Example 16] it is 7.24.
On the same count and under the same terms, to `CCCCOc1cc2nc(C(=O)c3ccccc3)cn2c2ccccc12` [Example 10] belongs 6.00.
Regarding `COc1ccc2c(c1)c(OC)cc1nc(C(=O)c3ccccc3)cn12` [Example 14], the pIC50 was 7.29.
Same read-out and setting: to `COc1cc2nc(C(=O)c3ccccc3)cn2c2c(OC)cccc12` [Example 19] belongs 6.20; to `COc1cc2nc(C(=O)c3ccccc3)cn2c2c(Cl)cccc12` [Example 23], 6.88.
The same measure, in the same setting: the figure for `CCc1ccc2c(c1)c(OC)cc1nc(C(=O)c3ccc(OC)cc3)cn12` [Example 28] is 7.52.
Consider `CCc1ccc2c(c1)c(OC)cc1nc(C(=O)c3ccccc3)cn12` [Example 1], for which the pIC50 was 7.85.
